# Assay results reported in patent US20230285402A1, “Compositions and Methods of Modulating Short-Chain Dehydrogenase Activity” (BOARD OF REGENTS OF THE UNIVERSITY OF TEXAS SYSTEM, priority 2013, published 2023).
# Read-outs that look alike come from different tables or passages of the source.
# What was measured:
# recombinant 15-PGDH [1] = biological target: T1, recombinant 15-PGDH (Homo sapiens (Human), UniProt P15428); test: Inhibition of enzymatic activity of recombinant 15-PGDH in vitro (NADH generation); type: biochemical
# T1 sequence (P15428 whole entry): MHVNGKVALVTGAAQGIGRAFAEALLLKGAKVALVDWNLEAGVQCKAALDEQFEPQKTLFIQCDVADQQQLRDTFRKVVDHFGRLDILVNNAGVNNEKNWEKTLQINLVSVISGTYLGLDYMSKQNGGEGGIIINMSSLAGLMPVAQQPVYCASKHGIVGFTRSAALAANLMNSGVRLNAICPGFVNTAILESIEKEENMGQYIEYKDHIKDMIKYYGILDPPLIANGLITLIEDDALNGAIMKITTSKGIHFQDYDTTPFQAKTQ
# bone marrow = test: Hematopoietic colonies from wild-type mouse bone marrow treated ex vivo; type: cell-based; details: 1 uM, ex vivo on ice 2 hours
# Source text: Treated marrow is again then plated into methylcellulose for counting of hematopoietic colonies.
# [2] = test system: 15-PGDH-luciferase fusion reporter in V9m, LS174T and V503 cells; test: 15-PGDH-luciferase fusion reporter induction in colon cancer cell lines; type: cell-based; details: for luciferase activity, in words: V9m, LS174T, V503; for Concentration for Full Cell Line Reporter Induction: maximal induction of reporter
# 15-PGDH mRNA = 15-PGDH mRNA by real-time PCR in colon cancer cell lines; type: cell-based; details: treated colon cancer cell lines
# Source text: In these studies parental cell lines (not containing the 15-PGDH-luciferase reporter) are employed.
# A549 cells [3] = test: PGE2 in medium of IL1-beta stimulated A549 cells; type: cell-based; details: for induction of PGE2 compared with SW033291: 4 nM to 2500 nM; for rank of PGE2 level in medium: 100 nM drug
# mice = test: Homing of CFSE labeled donor bone marrow cells in lethally irradiated mice; type: in vivo, mouse
# Description: Drugs are administered following radiation, following the transplant, and again at 8 hours after the transplant.
# recombinant 15-PGDH [4] = biological target: T1, recombinant 15-PGDH; test: Melting temperature shift of recombinant 15-PGDH (SYPRO Orange); type: binding; details: for melting temperature: 20 uM compound
# [5] = test system: cell numbers in a cell culture assay; test: Toxicity in cell culture assay (decrease of cell numbers); type: cell-based; details: concentration needed to decrease cell numbers
# Description: Time to inhibition refers to the time needed to inhibit the generation of NADH by 15-PGDH from the moment with drug is added into the reaction mix. Delta Tm refers to the shift in melting temperature of recombinant 15-PGDH in the presence of drug (with cofactor NADH also present). Concentration of Full Cell Line Reporter Induction refers to the concentration of drug that needs to be added to reporter cell line to achieve maximal induction of the 15-PGDH-luciferase gene fusion reporter cassette, as measured by luciferase assays. Hepatocyte stability refers to the half-life of compound in the presence of hepatocytes in culture. Toxicity refers to the concentration of compound needed to decrease cell numbers in a cell culture assay.
# A549 cells [6] = test: Cellular toxicity by CellTiter-Glo; type: cell-based; details: concentrations of up to 10 μM; 24 hours
# Description: FIGS. 38(A-C) show assays of cellular toxicity on A549 cells at 24 hours of 15-PGDH inhibitors as assayed by CellTiter-Glo measurement.
# [7] = read-out: Enzyme Inhibitor IC50 (nM) at 5 nM 15-PGDH, 5 nM recombinant human 15-PGDH
molecule,measurement,setting,value
CCCCSc1ncccc1N [SW208068],IC50,recombinant 15-PGDH [1]; [7],> 7500 nM
"CC(=O)OCCCS(=O)(=O)c1sc2nc(-c3cccs3)cc(-c3ccccc3)c2c1N [SW209272, 3-((3-amino-4-phenyl-6-(thiophen-2-yl)thieno[2,3-b]pyridin-2-yl)sulfonyl)propyl acetate]",IC50,recombinant 15-PGDH [1]; [7],530 nM
"Nc1c([S+]([O-])CCCCCl)sc2nc(-c3cccs3)cc(-c3ccccc3)c12 (stereo not drawn) [SW209329, 2-((4-chlorobutyl)sulfinyl)-4-phenyl-6-(thiophen-2-yl)thieno[2,3-b]pyridin-3-amine]",IC50,recombinant 15-PGDH [1]; [7],4.36 nM
"CCCCC(C)(C)[C@H](O)/C=C/[C@H]1[C@H](O)CC(=O)[C@@H]1C/C=C\CCCC(=O)O [dmPGE2, 16,16-dimethyl PGE2]","increase in colonies compared with SW033291 treated marrow, in words",bone marrow,slightly greater increase
CCCC[S+]([O-])c1ncccc1N (stereo not drawn) [SW208070],IC50,recombinant 15-PGDH [1]; [7],> 7500 nM
"CCCC[S+]([O-])c1sc2nc(-c3nccs3)c(C(=O)OCC)c(-c3ccc(Br)cc3)c2c1N (stereo not drawn) [SW209123, Ethyl 3-amino-4-(4-bromophenyl)-2-(butylsulfinyl)-6-(thiazol-2-yl)thieno[2,3-b]pyridine-5-carboxylate]",IC50,recombinant 15-PGDH [1]; [7],40.8 nM
CCCCS(=O)(=O)c1sc2nc(-c3nccs3)cc(-c3ccc(CO)cc3)c2c1N [SW209333],IC50,recombinant 15-PGDH [1]; [7],> 2500 nM
"CC(=O)OCCC[S+]([O-])c1sc2nc(-c3cccs3)cc(-c3ccccc3)c2c1N (stereo not drawn) [SW209273, 3-((3-amino-4-phenyl-6-(thiophen-2-yl)thieno[2,3-b]pyridin-2-yl)sulfinyl)propyl acetate]",IC50,recombinant 15-PGDH [1]; [7],21.6 nM
CS(=O)(=O)c1sc2nc(-c3cccs3)cc(-c3ccccc3)c2c1N [SW033290],IC50,recombinant 15-PGDH [1]; [7],525 nM
"CC(=O)OCCCC[S+]([O-])c1sc2nc(-c3cccs3)cc(-c3ccccc3)c2c1N (stereo not drawn) [SW209129, 4-((3-amino-4-phenyl-6-(thiophen-2-yl)thieno[2,3-b]pyridin-2-yl)sulfinyl)butyl acetate]",IC50,recombinant 15-PGDH [1]; [7],41.5 nM
"CCCCSc1cc2ccc(-c3ccccc3)nc2s1 [SW208430, 2-(butylthio)-6-phenylthieno[2,3-b]pyridine]",IC50,recombinant 15-PGDH [1]; [7],> 2500 nM
O=C(c1ccc2nc(-c3ccccc3)c(-c3ccccc3)nc2c1)N1CCCCC1 [SW145753],"luciferase activity, in words",[2],increase luciferase activity
same,15-PGDH mRNA levels,15-PGDH mRNA,do not in general alter 15-PGDH mRNA levels
same,15-PGDH activity in cells as reflected in PGE2 levels,"A549 cells [3]; IL1-beta 23 hours, compound for last 5 hours",clear inhibition of 15-PGDH activity
CCCCC[C@H](O)/C=C/[C@H]1[C@H](O)CC(=O)[C@@H]1C/C=C\CCCC(=O)O [PGE2],"increase in colonies compared with SW033291 treated marrow, in words",bone marrow,lesser increase
"CCCC[S+]([O-])c1sc2nc(-c3nccs3)cc(-c3nccs3)c2c1N (stereo not drawn) [SW209124, 2-(butylsulfinyl)-4,6-di(thiazol-2-yl)thieno[2,3-b]pyridin-3-amine]",induction of PGE2 compared with SW033291,A549 cells [3],increased activity relative to SW033291
"CCCC[S+]([O-])c1sc2nc(-c3nccs3)cc(-c3cnc(C)n3C)c2c1N (stereo not drawn) [SW209415, 2-(butylsulfinyl)-4-(1,2-dimethyl-1H-imidazol-5-yl)-6-(thiazol-2-yl)thieno[2,3-b]pyridin-3-amine]",share of 15-PGDH inhibitory activity due to the (+) optical isomer,recombinant 15-PGDH [1],at least 98%
same,increase of homed donor cells in recipient bone marrow,"mice; 10 mg/kg IP, FIG. 140",approximately 2.5 fold
CCCC[S+]([O-])CSc1nc(-c2nccs2)cc(-c2nccn2C)c1C#N (stereo not drawn) [SW209427],IC50,recombinant 15-PGDH [1]; [7],1480 nM
CCCCS(=O)(=O)c1cc2ccc(-c3ccccc3)nc2s1 [SW208434],IC50,recombinant 15-PGDH [1]; [7],> 2500 nM
"CC(C)[S+]([O-])c1sc2nc(-c3nccs3)cc(-c3nccn3C)c2c1N (stereo not drawn) [SW209279, 2-(isopropylsulfinyl)-4-(1-methyl-1H-imidazol-2-yl)-6-(thiazol-2-yl)thieno[2,3-b]pyridin-3-amine]",IC50,recombinant 15-PGDH [1]; [7],4.18 nM
"CCCC[S+]([O-])c1sc2nc(-c3nccs3)cc(-c3nccn3C)c2c1N (stereo not drawn) [SW209125, 2-(butylsulfinyl)-4-(1-methyl-1H-imidazol-2-yl)-6-(thiazol-2-yl)thieno[2,3-b]pyridin-3-amine]",induction of PGE2 compared with SW033291,A549 cells [3],increased activity relative to SW033291
COc1ccc(OC)c(N(CC(=O)Nc2cccnc2)S(=O)(=O)c2ccccc2)c1 [SW054384],"direct binding to 15-PGDH, in words","recombinant 15-PGDH [4]; melting temperature shift, cofactor 10 μM and 100 μM",cannot be demonstrated to bind
same,concentration of maximum activity,[2],6.25 µM
same,"luciferase activity, in words",[2],increase luciferase activity
same,15-PGDH mRNA levels,15-PGDH mRNA,do not in general alter 15-PGDH mRNA levels
same,PGE2 level,"A549 cells [3]; compound from 24 hours before IL1-beta, maintained next 26 hours",lower level of PGE2
CCCC[S+]([O-])c1sc2nc(-c3nccs3)cc(-c3ccccc3)c2c1N (stereo not drawn) [SW208066],rank of PGE2 level in medium,A549 cells [3],highest levels of PGE2
CCCC[S+]([O-])c1sc2nc(-c3nccs3)ccc2c1N (stereo not drawn) [SW206992],IC50,"recombinant 15-PGDH [1]; Table 2 summary, read-out: IC50",1.41 nM
same,IC50,recombinant 15-PGDH [1]; [7],1.41 nM
same,Time to inhibition (10 nM),"recombinant 15-PGDH [1]; time to inhibit NADH generation after drug is added, 10 nM",~2 min
same,Δ Tm (NADH),recombinant 15-PGDH [4],19 °C
same,melting temperature,"recombinant 15-PGDH [4]; 10 μM 15-PGDH, NAD(+) 100 μM, control 49",59 degrees
same,melting temperature,"recombinant 15-PGDH [4]; 10 uM 15-PGDH, NADH 100 uM, control 55",68.5 degrees
same,concentration needed to induce maximal reporter induction,[2]; exposure for 24 hours,≥ 1000 nM
same,Concentration for Full Cell Line Reporter Induction,[2],>1 µM
same,concentration at which maximal effect on PGE2 is attained,"A549 cells [3]; IL-1β 16 h, then compound 8 h",2.5 µM
same,highest PGE2 level in medium,"A549 cells [3]; IL-1β 16 h, then compound 8 h",2100 pg/mL
same,Toxicity,[5],>7.5 µM
same,effect on CellTitre-Glo levels,A549 cells [6],No effect
CCCC[S+]([O-])c1sc2nc(-c3cccs3)nc(-c3ccccc3)c2c1N (stereo not drawn) [SW208067],rank of PGE2 level in medium,A549 cells [3],highest levels of PGE2
CCCC[S+]([O-])c1sc2nc(-c3cccs3)cc(-c3ccc(Br)cc3)c2c1N (stereo not drawn) [SW208199],IC50,recombinant 15-PGDH [1]; [7],2.9 nM
CCCC[S+]([O-])c1sc2nc(-c3cccs3)ccc2c1N (stereo not drawn) [SW206980],highest PGE2 level in medium,"A549 cells [3]; IL-1β 16 h, then compound 8 h",2500 pg/mL
same,Toxicity,[5],>7.5 µM
same,effect on CellTitre-Glo levels,A549 cells [6],No effect
"CCCCSc1nc2nc(-c3cccs3)ccc2[nH]1 [SW208494, 2-(butylthio)-5-(thiophen-2-yl)-3H-imidazo[4,5-b]pyridine]",IC50,recombinant 15-PGDH [1]; [7],> 7500 nM
"COc1ccc2c(c1)c(CC(=O)O)c(C)n2C(=O)c1ccc(Cl)cc1 [indomethacin, reference compound]",effect of co-treatment on the homing effect of SW033291,mice; with SW033291 10 mg/kg IP,near completely blocked
"4-((3-amino-4-phenyl-6-(thiophen-2-yl)thieno[2,3-b]pyridin-2-yl)sulfonyl)butyl acetate [SW209128]",IC50,recombinant 15-PGDH [1]; [7],4910 nM
"CCCCSc1sc2nc(-c3ccccc3)ccc2c1N [SW208435, 2-(butylthio)-6-phenylthieno[2,3-b]pyridin-3-amine]",IC50,recombinant 15-PGDH [1]; [7],> 2500 nM
"CCC[S+]([O-])c1sc2nc(-c3nccs3)cc(-c3nccn3C)c2c1N (stereo not drawn) [SW209280, 4-(1-methyl-1H-imidazol-2-yl)-2-(propylsulfinyl)-6-(thiazol-2-yl)thieno[2,3-b]pyridin-3-amine]",IC50,recombinant 15-PGDH [1]; [7],3.73 nM
CCCC[S+]([O-])c1sc2nc(-c3ccccc3)nc(-c3ccccc3)c2c1N (stereo not drawn) [SW208065],Δ Tm (NADH),"recombinant 15-PGDH [4]; shift in melting temperature, cofactor NADH present",13 °C
same,Concentration for Full Cell Line Reporter Induction,[2],~0.1 µM
"CCCC[S+]([O-])c1sc2nc(-c3cccs3)cc(C)c2c1N (stereo not drawn) [SW208488, 2-(butylsulfinyl)-4-methyl-6-(thiophen-2-yl)thieno[2,3-b]pyridin-3-amine]",IC50,recombinant 15-PGDH [1]; [7],1.43 nM
"Nc1c([S+]([O-])CCCCO)sc2nc(-c3cccs3)cc(-c3ccccc3)c12 (stereo not drawn) [SW209271, 4-((3-amino-4-phenyl-6-(thiophen-2-yl)thieno[2,3-b]pyridin-2-yl)sulfinyl)butan-1-ol]",IC50,recombinant 15-PGDH [1]; [7],34.2 nM
"CCCC[S+]([O-])c1cc2ccc(-c3ccccc3)nc2s1 (stereo not drawn) [SW208432, 2-(butylsulfinyl)-6-phenylthieno[2,3-b]pyridine]",IC50,recombinant 15-PGDH [1]; [7],3.53 nM
CC(C)[S+]([O-])c1sc2nc(-c3nccs3)cc(-c3cccnc3)c2c1N (stereo not drawn) [SW208778],IC50,recombinant 15-PGDH [1]; [7],3.99 nM
(−) SW209415,IC50,"recombinant 15-PGDH [1]; FIG. 135, read-out: IC50",164 nM
